Laboratory results as given in ChEMBL document CHEMBL1201862, “PubChem BioAssay data set” (2004).
Active and inactive are the calls of the source.

Key:
[1] = target: T1, Endoribonuclease toxin MazF (Escherichia coli K-12, UniProt P0AE70); experiment: substrate-only fluorescence increase artefacts – biochemical, single-stranded RNase substrate, counter-screen for MazEF activator project, dose response (AID 588502); assay type: functional
T1 sequence (P0AE70 whole entry): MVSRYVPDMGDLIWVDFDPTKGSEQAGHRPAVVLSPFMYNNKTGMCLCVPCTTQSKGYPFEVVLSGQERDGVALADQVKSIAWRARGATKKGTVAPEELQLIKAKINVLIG

[2] = target: T1, Endoribonuclease toxin MazF; experiment: activation of MazEF endoribonuclease cleavage – biochemical, fluorescence, single-stranded RNA substrate, uHTS hits, dose response (AID 588481); assay type: functional
[3] = target: T2, Corticotropin-releasing factor receptor 2/Corticotropin-releasing factor-binding protein (Homo sapiens, UniProt P24387+Q13324); experiment: activators of CRF receptor 2 with binding protein – uHTS hits, confirmation (AID 602473); assay type: functional; conditions: read-out: EC50_Mean
T2 sequence (Q13324 whole entry): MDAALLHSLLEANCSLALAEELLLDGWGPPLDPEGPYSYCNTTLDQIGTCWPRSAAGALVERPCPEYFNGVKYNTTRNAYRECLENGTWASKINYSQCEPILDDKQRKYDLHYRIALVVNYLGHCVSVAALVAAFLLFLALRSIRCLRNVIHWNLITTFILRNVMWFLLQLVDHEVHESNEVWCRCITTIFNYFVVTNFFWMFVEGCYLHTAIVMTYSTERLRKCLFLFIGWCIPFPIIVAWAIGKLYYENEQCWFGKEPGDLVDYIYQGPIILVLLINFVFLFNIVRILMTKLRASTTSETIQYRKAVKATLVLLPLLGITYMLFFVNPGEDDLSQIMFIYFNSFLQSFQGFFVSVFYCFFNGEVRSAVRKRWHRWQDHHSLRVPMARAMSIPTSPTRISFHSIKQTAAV
T2 sequence (P24387 whole entry): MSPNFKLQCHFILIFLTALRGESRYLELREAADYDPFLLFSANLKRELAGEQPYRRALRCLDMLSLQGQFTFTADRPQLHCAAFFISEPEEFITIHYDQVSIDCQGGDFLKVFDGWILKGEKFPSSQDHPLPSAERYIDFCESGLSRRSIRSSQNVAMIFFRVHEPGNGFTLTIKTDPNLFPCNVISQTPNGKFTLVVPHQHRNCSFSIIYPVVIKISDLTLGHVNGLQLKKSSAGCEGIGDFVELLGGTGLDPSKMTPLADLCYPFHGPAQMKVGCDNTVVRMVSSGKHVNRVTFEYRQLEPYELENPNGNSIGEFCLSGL

[4] = Luminescence Cell-Based Dose Response HTS to Identify Activators of Luciferase Translation or Activity in H4 […] Cells. [Related pubchem assays: 1829 (Project Summary), 1814 (Primary HTS)]; assay type: functional
cells [5] = assay type: functional, cell-based
HEK293 = experiment: cells; assay type: functional, cell-based; conditions: Homo sapiens
cells [6] = assay type: functional, cell-based; remark: listed apart in the source
H4 = experiment: Luminescence Cell-Based Dose Response HTS to Identify Activators of 5'UTR Stem-Loop Driven Prion Protein mRNA Translation in H4 Neuroglioblastoma Cells. [Related pubchem assays: 1829 (Project Summary), 1814 (Primary HTS)]; assay type: functional; conditions: Homo sapiens
[7] = target: T3, Nuclear receptor subfamily 0 group B member 1 (Homo sapiens, UniProt P51843); experiment: Luminescence-based cell-based high throughput dose response assay for inhibitors of the orphan nuclear receptor subfamily 0, group B, member 1 (DAX1; NR0B1). [Related pubchem assays (depositor defined):AID504766, AID504790]; assay type: functional
T3 sequence (P51843 whole entry): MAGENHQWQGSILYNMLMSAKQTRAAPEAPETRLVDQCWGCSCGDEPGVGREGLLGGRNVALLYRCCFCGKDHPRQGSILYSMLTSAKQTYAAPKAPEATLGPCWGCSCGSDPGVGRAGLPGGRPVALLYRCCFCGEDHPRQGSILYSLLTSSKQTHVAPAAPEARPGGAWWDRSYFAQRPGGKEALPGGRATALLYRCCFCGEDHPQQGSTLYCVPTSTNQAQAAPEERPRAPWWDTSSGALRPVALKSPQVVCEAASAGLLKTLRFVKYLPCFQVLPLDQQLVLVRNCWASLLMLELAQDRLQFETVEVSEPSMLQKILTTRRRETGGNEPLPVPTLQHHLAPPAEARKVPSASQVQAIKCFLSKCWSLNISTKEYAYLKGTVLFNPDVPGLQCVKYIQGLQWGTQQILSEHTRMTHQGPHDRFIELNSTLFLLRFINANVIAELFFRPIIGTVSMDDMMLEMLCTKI

[8] = Luminescence Cell-Based Dose Confirmation HTS to Identify Activators of 5'UTR Stem-Loop Driven Alpha-Synuclein mRNA Translation in H4 Neuroglioblastoma Cells. [Related pubchem assays: 1829 (Project Summary), 1814 (Primary HTS)]; assay type: functional
[9] = target: T4, Microphthalmia-associated transcription factor (Homo sapiens, UniProt O75030); experiment: reducers of TRPM1 reporter luminescence, concentration series – cell-based, SK-MEL-5, cherry-picked, set 3, MITF inhibitor project, dose response (AID 493073); assay type: functional;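 also: SK-MEL-5 melanoma cells with luciferase driven by the MITF target TRPM1 promoter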
T4 sequence (O75030 whole entry): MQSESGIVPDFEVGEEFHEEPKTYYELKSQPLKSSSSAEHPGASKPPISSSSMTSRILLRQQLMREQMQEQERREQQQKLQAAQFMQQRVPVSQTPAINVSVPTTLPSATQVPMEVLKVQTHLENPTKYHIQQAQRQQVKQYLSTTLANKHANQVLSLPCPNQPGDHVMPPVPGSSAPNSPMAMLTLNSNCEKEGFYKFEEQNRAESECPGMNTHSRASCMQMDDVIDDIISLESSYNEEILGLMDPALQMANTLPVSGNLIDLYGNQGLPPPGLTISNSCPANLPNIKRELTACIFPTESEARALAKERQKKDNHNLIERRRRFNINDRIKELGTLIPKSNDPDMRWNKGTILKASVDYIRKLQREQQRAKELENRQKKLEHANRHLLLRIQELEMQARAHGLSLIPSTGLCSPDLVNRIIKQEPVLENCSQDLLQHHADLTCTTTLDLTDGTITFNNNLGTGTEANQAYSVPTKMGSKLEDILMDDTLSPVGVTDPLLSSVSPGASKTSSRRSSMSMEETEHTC

A-375 = experiment: proliferation inhibition in MITF-low A375 cells – cell-based, cherry-pick samples, set 2, counter-screen for MITF modulator project, dose response (AID 540335); assay type: functional; conditions: Homo sapiens
[10] = target: T5, DNA repair protein RAD52 homolog (Homo sapiens, UniProt P43351); assay type: functional, biochemical
T5 sequence (P43351 whole entry): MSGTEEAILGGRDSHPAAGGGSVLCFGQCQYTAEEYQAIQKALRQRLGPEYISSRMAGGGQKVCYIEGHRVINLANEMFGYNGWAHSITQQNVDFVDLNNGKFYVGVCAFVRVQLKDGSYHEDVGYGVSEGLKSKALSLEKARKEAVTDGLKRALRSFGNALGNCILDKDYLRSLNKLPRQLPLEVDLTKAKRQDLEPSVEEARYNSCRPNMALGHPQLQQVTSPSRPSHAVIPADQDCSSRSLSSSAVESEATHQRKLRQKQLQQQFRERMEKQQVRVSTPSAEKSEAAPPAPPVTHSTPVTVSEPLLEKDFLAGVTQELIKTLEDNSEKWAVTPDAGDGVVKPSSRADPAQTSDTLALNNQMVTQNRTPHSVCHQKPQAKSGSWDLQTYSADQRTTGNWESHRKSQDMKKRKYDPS

[11] = target: T6, Ubiquitin-conjugating enzyme E2 N (Homo sapiens, UniProt P61088); assay type: functional;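 also: Dose-response confirmation in a TR-FRET assay detecting UBC13-driven polyubiquitin chain formation, inhibition measured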
T6 sequence (P61088 whole entry): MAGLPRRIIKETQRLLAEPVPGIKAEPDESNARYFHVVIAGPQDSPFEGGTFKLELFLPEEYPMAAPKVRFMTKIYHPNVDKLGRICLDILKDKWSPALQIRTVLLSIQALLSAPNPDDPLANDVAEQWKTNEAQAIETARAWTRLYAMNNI

[12] = target: T7, RNA-binding protein pos-1 (Caenorhabditis elegans, UniProt G5EF15); experiment: disruptors of C. elegans POS-1 RNA interaction – biochemical, fluorescence polarization, dose response (AID 1964);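 also: purified POS-1 fused to maltose binding protein made in E. coli; potency of compounds blocking POS-1 binding to fluorescent RNA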
T7 sequence (G5EF15 whole entry): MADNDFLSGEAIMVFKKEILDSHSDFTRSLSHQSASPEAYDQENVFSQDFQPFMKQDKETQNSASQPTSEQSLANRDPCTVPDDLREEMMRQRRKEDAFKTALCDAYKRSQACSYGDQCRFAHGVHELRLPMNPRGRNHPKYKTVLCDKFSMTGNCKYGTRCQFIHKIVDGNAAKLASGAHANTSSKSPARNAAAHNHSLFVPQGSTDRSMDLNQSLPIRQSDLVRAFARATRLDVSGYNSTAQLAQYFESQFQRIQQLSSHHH

HeLa = experiment: viability loss in HeLa cells – cell-based, 24 h, cherry-picked samples, cytotoxicity control, dose response (AID 504726); assay type: functional; conditions: Homo sapiens;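 also: potency for cytotoxicity as loss of luminescence signal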
[13] = target: T8, Zinc finger protein mex-5 (Caenorhabditis elegans, UniProt Q9XUB2); experiment: potency of MEX-5 RNA-binding blockers – biochemical, C. elegans, fluorescence polarization, dose response (AID 1960)
T8 sequence (Q9XUB2 whole entry): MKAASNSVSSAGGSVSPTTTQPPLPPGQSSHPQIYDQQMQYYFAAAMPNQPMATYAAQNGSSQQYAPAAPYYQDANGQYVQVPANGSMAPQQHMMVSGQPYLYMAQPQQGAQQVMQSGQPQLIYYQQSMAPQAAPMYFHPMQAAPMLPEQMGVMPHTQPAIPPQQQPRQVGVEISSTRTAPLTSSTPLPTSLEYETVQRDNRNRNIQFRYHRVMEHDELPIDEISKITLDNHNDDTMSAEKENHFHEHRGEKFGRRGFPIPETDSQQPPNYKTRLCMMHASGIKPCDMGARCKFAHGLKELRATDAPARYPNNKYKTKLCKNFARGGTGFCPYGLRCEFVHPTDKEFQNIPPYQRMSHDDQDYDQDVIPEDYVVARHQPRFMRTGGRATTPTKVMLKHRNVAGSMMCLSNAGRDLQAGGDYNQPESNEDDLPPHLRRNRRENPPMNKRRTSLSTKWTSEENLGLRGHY

[14] = HIV-1 AD8 envelope cell-cell fusion blockers – cherry-pick, dose response (AID 652062); assay type: functional, cell-based;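 also: luciferase signal from cell-cell fusion driven by HIV-1 clade B AD8 Env; potency is for inhibitors of fusion seen as a drop in luminescence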
Jurkat = experiment: blockers of NF-kB activation in T cells – Jurkat, luciferase reporter, luminescence, B- and T-cell, dose response (AID 489004); assay type: functional, cell-based; conditions: Homo sapiens;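 also: NF-kB luciferase reporter Jurkat cells stimulated with PMA plus ionomycin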
[15] = blockers of HIV-1 envelope-mediated cell-cell fusion – cherry-pick, dose response (AID 652057); assay type: functional, cell-based
[16] = HEK-293T viability loss, compound-treated – cell-based, uHTS hits, cytotoxicity control for B/T-cell NF-kB inhibitor project, dose response (AID 489019); assay type: functional;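 also: IC50 reflects cytotoxicity as loss of cell viability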
[17] = Luminescence Cell-Based Dose Retest to Confirm Inhibitors of Cancer Stem Cells. [Related pubchem assays (depositor defined):AID2717, AID2721]; assay type: functional; conditions: Homo sapiens
[18] = off-target signal loss in HeLa-CEM21 co-culture – HeLa F-luc CTL cells, cherry-picked, counter-screen for HIV-1 Env fusion inhibitor project, dose response (AID 652040); assay type: functional, cell-based;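 also: potency for signal decrease marking cytotoxic or nonspecific inhibition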
[19] = blockers of HIV-1 ZM109 envelope-driven cell-cell fusion – HeLa effector, CEM target cells, luciferase, cherry-pick, dose response (AID 652058); assay type: functional, cell-based;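 also: luciferase signal from HIV-1 Env mediated cell-cell fusion of effector and target cells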
Paired box protein Pax-8 = Paired box protein Pax-8 (Homo sapiens, UniProt Q06710); experiment: PAX8 transcriptional activity inhibition in RMG-I – RMG-I cells, luciferase, cherry-pick, dose response (AID 687027); assay type: functional, cell-based;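 also: luciferase reporter driven by Pax8 target thyroperoxidase promoter measured by SteadyGlo luminescence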
Chain of Paired box protein Pax-8 (Q06710 whole entry, the tested form may be a part): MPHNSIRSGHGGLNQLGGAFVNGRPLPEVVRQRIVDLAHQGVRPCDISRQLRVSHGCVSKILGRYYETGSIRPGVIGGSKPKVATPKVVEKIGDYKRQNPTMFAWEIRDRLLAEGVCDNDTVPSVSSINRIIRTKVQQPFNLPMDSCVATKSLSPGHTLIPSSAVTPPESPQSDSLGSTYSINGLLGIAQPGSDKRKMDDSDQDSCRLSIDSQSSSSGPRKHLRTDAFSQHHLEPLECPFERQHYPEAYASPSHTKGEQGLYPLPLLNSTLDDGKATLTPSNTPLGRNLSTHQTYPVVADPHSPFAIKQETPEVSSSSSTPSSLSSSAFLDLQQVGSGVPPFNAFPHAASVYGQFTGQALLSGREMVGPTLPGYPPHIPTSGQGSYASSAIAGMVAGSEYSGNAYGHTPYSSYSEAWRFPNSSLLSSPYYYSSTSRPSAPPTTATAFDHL

[20] = viability loss in CEM21 cells – cell-based, CellTiter-Glo luminescence, cherry-picked, cytotoxicity control for viral fusion inhibitor project, dose response (AID 652042); assay type: functional;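 also: potency for signal decrease meaning cytotoxicity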
[21] = target: Beta-2 adrenergic receptor (Homo sapiens, UniProt P07550); experiment: ADRB2 activation measured by internalization – cell-based, FAP fluorogen, flow cytometry, cherry pick 1, dose response (AID 588763); assay type: functional
Chain of Beta-2 adrenergic receptor (P07550 whole entry): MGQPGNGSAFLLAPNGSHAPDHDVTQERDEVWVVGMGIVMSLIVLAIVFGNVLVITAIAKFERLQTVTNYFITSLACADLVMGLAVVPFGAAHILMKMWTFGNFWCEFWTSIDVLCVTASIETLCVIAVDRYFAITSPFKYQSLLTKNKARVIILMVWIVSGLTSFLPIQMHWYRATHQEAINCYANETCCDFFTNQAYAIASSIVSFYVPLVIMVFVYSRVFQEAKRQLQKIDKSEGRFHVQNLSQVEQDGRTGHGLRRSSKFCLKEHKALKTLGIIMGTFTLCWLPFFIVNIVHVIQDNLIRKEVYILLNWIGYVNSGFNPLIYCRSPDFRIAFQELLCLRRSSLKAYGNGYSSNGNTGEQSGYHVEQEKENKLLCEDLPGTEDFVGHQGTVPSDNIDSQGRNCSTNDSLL

In the case of CSc1nc(-c2ccc(N(C)C)cc2)c(C#N)c(=O)n1C, the EC50 [1] is reported as > 99 µM (inactive), the EC50 [2] is reported as > 99 µM (inactive) and the EC50 [3] is reported as 7.08 µM (active).
With COc1ccc(C(=O)NC2=Nc3ccccc3N=C(C)C2c2ccccc2)cc1 (stereo not drawn) the EC50 [4] was 40.7 µM (active), the EC50 (cells [5]) was 78.6 µM (active) and the IC50 (HEK293) was 3.47 µM (active). For the same compound, the EC50 (cells [6]) was 34.7 µM (active), the EC50 (H4) was 18.9 µM (active) and the IC50 [7] was > 67.5 µM (inactive). For the same compound, the EC50 [8] was 9.66 µM (active).
For Cc1c(CCOC(=O)c2ccc(Cl)cc2Cl)sc[n+]1CC(=O)c1ccc(Br)cc1, the AC50 [9] was 19.8 µM (active), the AC50 (A-375) was 23.5 µM (active) and the AC50 [10] was 13 µM (active). For the same compound, the IC50 [11] was > 20 µM (inactive).
In the case of CN(C)S(=O)(=O)c1cc(NC2CC(=O)N(c3ccc(F)cc3)C2=O)ccc1Cl (stereo not drawn), the IC50 (HEK293) is reported as > 67.5 µM (inactive) and the IC50 [7] is reported as > 67.5 µM (inactive).
In the case of Cc1ccc(N=Nc2c(O)[nH]c3ccc(F)cc23)cc1, the EC50 [1] is reported as 29.9 µM (inactive), the EC50 [2] is reported as > 99 µM (inactive) and the EC50 [12] is reported as > 300 µM (inconclusive). For the same compound, the AC50 (HeLa) was 251 µM (active) and the EC50 [13] was > 300 µM (inconclusive).
With C[C@@H]1O[C@@H](O[C@@H]2C=C3CC[C@@H]4C(CC[C@]5(C)[C@@H](c6ccc(=O)oc6)CC[C@]45O)[C@@]3(C)CC2)[C@H](O)[C@H](O)[C@H]1O (stereo partly drawn) the AC50 [14] was 0.54 µM (active), the IC50 (Jurkat) was 0.33 µM (active) and the AC50 [15] was 0.799 µM (active). For the same compound, the IC50 [16] was > 80 µM (inactive), the AC50 [17] was < 0.16 µM (active) and the AC50 [18] was < 0.26 µM (active). For the same compound, the AC50 [19] was 0.319 µM (active), the AC50 (Paired box protein Pax-8) was < 0.26 µM (active) and the AC50 [20] was 0.613 µM (active).
With O=C1C2CCCCN2C(=O)N1CCCCN1CCN(c2cccc(C(F)(F)F)c2)CC1 (stereo not drawn) the EC50 [21] was 2.52 µM (active).
For O=C(Nc1ccc2oc(-c3ccccc3)nc2c1)c1cc(-n2cnnc2)ccc1Cl, the EC50 [1] was > 99 µM (inactive) and the EC50 [2] was > 99 µM (inactive).
